The values that follow come from patent US9624170B2, “4-(piperrazin-1-yl)-pyrrolidin-2-one compounds as monoacylglycerol lipase (MAGL) inhibitors” (TAKEDA PHARMACEUTICAL COMPANY LIMITED, priority 2013, dated 2017).

One may read the inhibition as the drop in the measured response relative to a control, in per cent.

One experiment addresses T1, human MAGL (His-hMAGL) (Homo sapiens, UniProt Q99685).
T1 construct: made in house; host or cells: Escherichia coli BL21(DE3)
T1 sequence (Q99685 1-303): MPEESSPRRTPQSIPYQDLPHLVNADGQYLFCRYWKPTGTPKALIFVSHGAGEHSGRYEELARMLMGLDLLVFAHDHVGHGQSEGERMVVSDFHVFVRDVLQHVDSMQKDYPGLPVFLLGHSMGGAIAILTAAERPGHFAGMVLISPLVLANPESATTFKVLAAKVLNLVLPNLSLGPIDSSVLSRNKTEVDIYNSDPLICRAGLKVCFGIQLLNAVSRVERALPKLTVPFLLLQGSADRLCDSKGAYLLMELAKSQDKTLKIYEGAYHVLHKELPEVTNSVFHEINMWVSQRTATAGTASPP
The experiment can be described thus: Measurement of MAGL inhibitory activity by mass spectrometry. Format: biochemical. The note with it: 10 μM test compound; substrate 2-arachidonylglycerol, arachidonic acid by RapidFire-mass spectrometry. As to the method: Thereafter, to each well was added 150 μM 2-arachidonylglycerol (Tocris Bioscience) by 5 μL, and the mixture was incubated at room temperature for 10 min. Then, 2% formic acid (Wako Pure Chemical Industries, Ltd.) was added by 10 μL to discontinue the reaction. Furthermore, acetonitrile (50 μL) containing 3 μM arachidonic acid-d8 (Cayman Chemical Company) was added and the mixture was stirred. The amount of arachidonic acid in the obtained enzyme reaction mixture was calculated by measuring by RapidFire-mass spectrometry and correcting by the amount of arachidonic acid-d8. High Throughput online solid phase extraction was performed using RapidFire 300TM system (Agilent Technologies, Inc.). […] The injection needle was washed with ultrapure water (500 millisecond) and acetonitrile (500 millisecond) to minimize carry-over. […] The RapidFire300 system was controlled by RapidFire UI software version 3.6 (Agilent Technologies, Inc.). The mass spectrometry of the resultant product was performed using […] triple quadrupole mass spectrometer (AB SCIEX) equipped with an electrospray ion sauce (Turbolon SprayTM) in a negative selected reaction monitoring (SRM) mode. The conditions of SRM are shown below. The parameters of the instrument were optimized as follows: capillary temperature 600° C., ion spray voltage -4.5 kV, collision gas 8, curtain gas 15 psi, ion source gas 1 60 psi, ion source gas 2 60 psi. The mass spectrometer was controlled by AnalystTM software version 1.5.1 (AB SCIEX). The peak area integration was analyzed using RapidFire integrator software version 3.6 (Agilent Technologies, Inc.). MAGL inhibitory rate (%) was calculated according to the following calculation formula.
In the case of `O=C(c1nccs1)N1CCN(C2CC(=O)N(c3cncc(-c4ccccc4)c3)C2)CC1` (stereo not drawn) [Example 131, 1-(5-phenylpyridin-3-yl)-4-(4-(1,3-thiazol-2-ylcarbonyl)piperazin-1-yl)pyrrolidin-2-one], the inhibition at 10 µM is 91%. Turning to `O=C(c1nccs1)N1CCN(C2CC(=O)N(c3ccc4c(c3)CCN4c3ncc(C(F)(F)F)cn3)C2)CC1` (stereo not drawn) [Example 141, 4-(4-(1,3-Thiazol-2-ylcarbonyl)piperazin-1-yl)-1-(1-(5-(trifluoromethyl)pyrimidin-2-yl)-2,3-dihydro-1H-indol-5-yl)pyrrolidin-2-one], the inhibition at 10 µM turned out to be 98%. On the same count and under the same terms, under `CC(=O)Nc1ccc(-c2cccc(N3CC(N4CCN(C(=O)c5nccs5)CC4)CC3=O)c2)cc1` (stereo not drawn) [Example 97, N-(3′-(2-oxo-4-(4-(1,3-thiazol-2-ylcarbonyl)piperazin-1-yl)pyrrolidin-1-yl)biphenyl-4-yl)acetarnide] stands 97%; under `CC(=O)N1CCCC(Nc2cccc(N3CC(N4CCN(C(=O)c5nccs5)CC4)CC3=O)c2)C1` (stereo not drawn) [Example 126, 1-(3-((1-acetylpiperidin-3-yl)amino)phenyl)-4-(4-(1,3-thiazol-2-ylcarbonyl)piperazin-1-yl)pyrrolidin-2-one], 97%; under `O=C(c1nccs1)N1CCN(C2CC(=O)N(c3cccc(-c4ccccc4C(F)(F)F)c3)C2)CC1` (stereo not drawn) [Example 138, 4-(4-(1,3-thiazol-2-ylcarbonyl)piperazin-1-yl)-1-(2′-(trifluorornethyl)biphenyl-3-yl)pyrrolidin-2-one], 101%. Still for that read-out and setting: the value for `O=C(c1nccs1)N1CCN(C2CC(=O)N(c3cccc(-c4cnn5ccccc45)c3)C2)CC1` (stereo not drawn) [Example 106, 1-(3-(pyrazolo[1,5-a]pyridin-3-yl)phenyl)-4-(4-(1,3-thiazol-2-ylcarbonyl)piperazin-1-yl)pyrrolidin-2-one] was 99%; that for `O=C1COc2ccc(Nc3cccc(N4CC(N5CCN(C(=O)c6nccs6)CC5)CC4=O)c3)cc2N1` (stereo not drawn) [Example 122, 6-((3-(2-oxo-4-(4-(1,3-thiazol-2-ylcarbonyl)piperazin-1-yl)pyrrolidin-1-yl)phenyl)amino)-2H-1,4-benzoxazin-3(4H)-one] was 98%. As for `CC(=O)Nc1ccc(Nc2cccc(N3CC(N4CCN(C(=O)c5nccs5)CC4)CC3=O)c2)cc1` (stereo not drawn) [Example 116, N-(4-((3-(2-oxo-4-(4-(1,3-thiazol-2-ylcarbonyl)piperazin-1-yl)pyrrolidin-1-yl)phenyl)amino)phenyl)acetamide], the inhibition at 10 µM amounted to 99%.

`Cc1ccncc1-c1ccc(N2CC(N3CCN(C(=O)c4nccs4)CC3)CC2=O)cc1` (stereo not drawn) [Example 177, 1-(4-(4-methylpyridin-3-yl)phenyl)-4-(4-(1,3-thiazol-2-ylcarbonyl)piperazin-1-yl)pyrrolidin-2-one]: the inhibition at 10 µM was 80%. Take `Cc1ccsc1-c1cccc(N2CC(N3CCN(C(=O)c4nccs4)CC3)CC2=O)c1` (stereo not drawn) [Example 162, 1-(3-(3-methyl-2-thienyl)phenyl)-4-(4-(1,3-thiazol-2-ylcarbonyl)piperazin-1-yl)pyrrolidin-2-one]: the inhibition at 10 µM is 99%.

The same experiment, now with this note: MAGL inhibitory rate, test compound 10 μM, His-hMAGL, substrate 2-arachidonylglycerol, RapidFire-mass spectrometry.
Take `Cc1nc(C)c(-c2cccc(N3CC(N4CCN(C(=O)c5nccs5)CC4)CC3=O)c2)s1` (stereo not drawn) [Example 258, 1-(3-(2,4-dimethyl-1,3-thiazol-5-yl)phenyl)-4-(4-(1,3-thiazol-2-ylcarbonyl)piperazin-1-yl)pyrrolidin-2-one(optical isomer)]: the inhibition at 10 µM was 102%.

As to `CC(C)(C)OC(=O)N1CCc2cc(N3CC(N4CCN(c5ncccn5)CC4)CC3=O)ccc21` (stereo not drawn) [Example 389, tert-butyl 5-(2-oxo-4-(4-(pyrimidin-2-yl)piperazin-1-yl)pyrrolidin-1-yl)indoline-1-carboxylate], the inhibition at 10 µM is 98%. Turning to `O=C(c1nccs1)N1CCN(C2CC(=O)N(c3ccc(F)c(-c4ccccc4Cl)c3)C2)CC1` (stereo not drawn) [Example 277, 1-(2′-chloro-6-fluorobiphenyl-3-yl)-4-(4-(1,3-thiazol-2-ylcarbonyl)piperazin-1-yl)pyrrolidin-2-one], the inhibition at 10 µM was 98%. For the compound `O=C(c1nccs1)N1CCN(C2CC(=O)N(c3cccc(-c4ccc(Cl)cc4F)c3)C2)CC1` (stereo not drawn) [Example 304, 1-(4′-chloro-2′-fluorobiphenyl-3-yl)-4-(4-(1,3-thiazol-2-ylcarbonyl)piperazin-1-yl)pyrrolidin-2-one], the inhibition at 10 µM is 100%. On to `O=C(c1nccs1)N1CCN(C2CC(=O)N(c3cccc(-c4ccc(F)cc4Cl)c3)C2)CC1` (stereo not drawn) [Example 275, 1-(2′-chloro-4′-fluorobiphenyl-3-yl)-4-(4-(1,3-thiazol-2-ylcarbonyl)piperazin-1-yl)pyrrolidin-2-one], for which the inhibition at 10 µM was found to be 103%. `O=C(c1nccs1)N1CCN(C2CC(=O)N(c3cccc(-c4cccc5c4OCC5)c3)C2)CC1` (stereo not drawn) [Example 314, 1-(3-(2,3-dihydro-1-benzofuran-7-yl)phenyl)-4-(4-(1,3-thiazol-2-ylcarbonyl)piperazin-1-yl)pyrrolidin-2-one]: the inhibition at 10 µM was 104%. On to `O=C(c1nccs1)N1CCN(C2CC(=O)N(c3cccc(-c4cccc5nccn45)c3)C2)CC1` (stereo not drawn) [Example 340, 1-(3-(imidazo[1,2-a]pyridin-5-yl)phenyl)-4-(4-(1,3-thiazol-2-ylcarbonyl)piperazin-1-yl)pyrrolidin-2-one], for which the inhibition at 10 µM came out at 99%. As for `O=C(c1nccs1)N1CCN(C2CC(=O)N(c3cccc(-c4cccc(OC(F)(F)F)c4)c3)C2)CC1` (stereo not drawn) [Example 297, 4-(4-(1,3-thiazol-2-ylcarbonyl)piperazin-1-yl)-1-(3′-(trifluoromethoxy)biphenyl-3-yl)pyrrolidin-2-one], the inhibition at 10 µM was determined as 103%. Regarding `O=C(c1nccs1)N1CCN(C2CC(=O)N(c3cccc(-c4cc(Cl)ccc4Cl)c3)C2)CC1` (stereo not drawn) [Example 300, 1-(2′,5′-dichlorobiphenyl-3-yl)-4-(4-(1,3-thiazol-2-ylcarbonyl)piperazin-1-yl)pyrrolidin-2-one], the inhibition at 10 µM is 101%. Consider `NS(=O)(=O)c1ccc(-c2ccc(N3CC(N4CCN(C(=O)c5nccs5)CC4)CC3=O)cc2)cc1` (stereo not drawn) [Example 193, 4′-(2-oxo-4-(4-(1,3-thiazol-2-ylcarbonyl)piperazin-1-yl)pyrrolidin-1-yl)biphenyl-4-sulfonamide], for which the inhibition at 10 µM is 97%.

Regarding `Cc1cc(-c2ccccc2)cc(N2CC(N3CCN(C(=O)c4nccs4)CC3)CC2=O)c1` (stereo not drawn) [Example 240, 1-(5-methylbiphenyl-3-yl)-4-(4-(1,3-thiazol-2-ylcarbonyl)piperazin-1-yl)pyrrolidin-2-one], the inhibition at 10 µM was found to be 99%. Consider `Cc1cn2c(-c3cccc(N4CC(N5CCN(C(=O)c6nccs6)CC5)CC4=O)c3)cccc2n1` (stereo not drawn) [Example 345, 1-(3-(2-methylimidazo[1,2-a]pyridin-5-yl)phenyl)-4-(4-(1,3-thiazol-2-ylcarbonyl)piperazin-1-yl)pyrrolidin-2-one], for which the inhibition at 10 µM is 97%. Turning to `O=C1CC(N2CCN(c3ncccn3)CC2)CN1c1ccc2c(c1)CCN2c1ccnc(C(F)(F)F)c1` (stereo not drawn) [Example 377, 4-(4-(pyrimidin-2-yl)piperazin-1-yl)-1-(1-(2-(trifluoromethyl)pyridin-4-yl)-2,3-dihydro-1H-indol-5-yl)pyrrolidin-2-one], the inhibition at 10 µM came out at 97%.

For the compound `N#Cc1cccc(-c2ccc(N3CC(N4CCN(C(=O)c5nccs5)CC4)CC3=O)cc2)c1` (stereo not drawn) [Example 185, 4′-(2-oxo-4-(4-(1,3-thiazol-2-ylcarbonyl)piperazin-1-yl)pyrrolidin-1-yl)biphenyl-3-carbonitrile], the inhibition at 10 µM is 100%. The same measure, in the same setting: under `O=C(c1nccs1)N1CCN([C@@H]2CC(=O)N(c3ccc4c(ccn4-c4ccc(C(F)(F)F)nn4)c3)C2)CC1` [Example 234, (4R)-4-(4-(1,3-thiazol-2-ylcarbonyl)piperazin-1-yl)-1-(1-(6-(trifluoromethyl)pyridazin-3-yl)-1H-indol-5-yl)pyrrolidin-2-one] stands 98%; under `O=C(c1nccs1)N1CCN(C2CC(=O)N(c3cccc(-c4cnc5ccccn45)c3)C2)CC1` (stereo not drawn) [Example 331, 1-(3-(imidazo[1,2-a]pyridin-3-yl)phenyl)-4-(4-(1,3-thiazol-2-ylcarbonyl)piperazin-1-yl)pyrrolidin-2-one], 101%. Still for that read-out and setting: the value for `O=C(c1nccs1)N1CCN(C2CC(=O)N(c3cccc(-c4cccc5ccnn45)c3)C2)CC1` (stereo not drawn) [Example 338, 1-(3-(pyrazolo[1,5-a]pyridin-7-yl)phenyl)-4-(4-(1,3-thiazol-2-ylcarbonyl)piperazin-1-yl)pyrrolidin-2-one] was 98%.
